Literature values as cited in patent publication US20220273822A1, “ANIMAL MODEL OF IDIOPATHIC PULMONARY FIBROSIS, ITS CONSTRUCTION METHOD AND USE” (National Institute of Biological Sciences, Beijing, priority 2019, published 2022).

Conditions: IPF

SMILES | mortality | survival time
COC(=O)c1ccc2c(c1)NC(=O)/C2=C(\Nc1ccc(N(C)C(=O)CN2CCN(C)CC2)cc1)c1ccccc1 [nintedanib] | tendency of reducing mortality | failed to show significantly increased survival time
Cc1ccc(=O)n(-c2ccccc2)c1 [pirfenidone] | tendency of reducing mortality | failed to show significantly increased survival time
